molecular target: hMC2 receptor (Homo sapiens, UniProt Q01718); assay: hMC2 membrane binding assay ([125I]ACTH (1-39) Tyr23, SPA); design: scale not given here; conditions: crude hMC2R membranes from CRE-bla-CHO-K1 cells expressing hMC2 receptor and hMRAP; [125I]ACTH (1-39) Tyr23 0.2 nM; 1.5 hours at room temperature; read-out: MC2R binding potency
How it was run: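 Ki comes from non-linear regression of SPA scintillation counts. Displacement of 0.2 nM [125I]ACTH(1-39) Tyr23 by compound dose series (usually 0–10,000 nM final) ran 1.5 h at room temperature. Membranes came from CHO-K1 CRE-bla cells stably expressing hMC2R plus hMRAP, bead-coupled in pH 7.4 buffer with 0.2% BSA.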

Sequence of hMC2 receptor (Q01718 whole entry): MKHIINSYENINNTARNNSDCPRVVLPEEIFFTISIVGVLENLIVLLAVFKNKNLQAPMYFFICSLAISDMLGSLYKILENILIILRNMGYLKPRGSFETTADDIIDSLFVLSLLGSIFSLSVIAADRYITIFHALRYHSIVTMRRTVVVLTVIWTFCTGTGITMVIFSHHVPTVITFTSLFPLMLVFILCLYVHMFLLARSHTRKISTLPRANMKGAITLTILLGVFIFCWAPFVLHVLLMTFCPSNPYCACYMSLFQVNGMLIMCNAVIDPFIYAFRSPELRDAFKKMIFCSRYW
Sequence of hMC2 receptor (Q8TCY5 whole entry partner): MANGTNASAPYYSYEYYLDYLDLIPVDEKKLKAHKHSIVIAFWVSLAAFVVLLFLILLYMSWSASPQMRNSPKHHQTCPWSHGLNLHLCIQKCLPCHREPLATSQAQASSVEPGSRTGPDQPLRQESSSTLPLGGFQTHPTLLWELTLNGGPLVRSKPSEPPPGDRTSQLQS

Ki, 10 to 100 nM:
CCCOc1ccccc1-c1ccc(N2CCN(C(=O)c3ccc(C(F)(F)F)cc3Cl)C[C@H]2CC)c(C(=O)NCCN)c1 [Compound 1-11, N-(2-aminoethyl)-4-[(2R)-4-[2-chloro-4-(trifluoromethyl)benzoyl]-2-ethylpiperazin-1-yl]-2′-propoxy-[1,1′-biphenyl]-3-carboxamide]

Ki, < 10 nM:
CCOc1ncccc1-c1ccc(N2CCN(C(=O)c3ccc(F)cc3C(F)F)C[C@H]2CC)c(C(=O)N[C@@H]2CCN(C)C2)n1 [Compound 1-279, 5-[(2R)-4-[2-(difluoromethyl)-4-fluorobenzoyl]-2-ethylpiperazin-1-yl]-2′-ethoxy-N-[(3R)-1-methylpyrrolidin-3-yl]-[2,3′-bipyridine]-6-carboxamide]
CCOc1ncccc1-c1ccc(N2CCN(C(=O)c3ccc(Cl)cc3C(F)(F)F)C[C@H]2CC)c(C(=O)NC[C@@H]2CCN2C)c1F [Compound 1-229, 6-[(2R)-4-[4-chloro-2-(trifluoromethyl)benzoyl]-2-ethylpiperazin-1-yl]-3-(2-ethoxypyridin-3-yl)-2-fluoro-N-{[(2S)-1-methylazetidin-2-yl]methyl}benzamide]
CCOc1ncccc1-c1ccc(N2CCN(C(=O)c3ccc(OC)nc3C(F)(F)F)C[C@H]2CC)c(C(=O)N[C@@H]2CN(C)C[C@H]2F)n1 [Compound 1-290, 2′-ethoxy-5-[(2R)-2-ethyl-4-[6-methoxy-2-(trifluoromethyl)pyridine-3-carbonyl]piperazin-1-yl]-N-[(3R,4R)-4-fluoro-1-methylpyrrolidin-3-yl]-[2,3′-bipyridine]-6-carboxamide]
CCOc1ncccc1-c1ccc(N2CCN(C(=O)c3ccc(Cl)cc3C(F)(F)F)C[C@H]2CC)c(C(=O)NC[C@H]2CCCN2)c1F [Compound 1-124, 6-[(2R)-4-[4-chloro-2-(trifluoromethyl)benzoyl]-2-ethylpiperazin-1-yl]-3-(2-ethoxypyridin-3-yl)-2-fluoro-N-{[(2R)-pyrrolidin-2-yl]methyl}benzamide]
CCOc1ncccc1-c1ccc(N2CCN(C(=O)c3ccc(Cl)cc3Cl)C[C@H]2CC)c(C(=O)N[C@@H]2CCN(C)C2)n1 [Compound 1-259, 5-[(2R)-4-(2,4-dichlorobenzoyl)-2-ethylpiperazin-1-yl]-2′-ethoxy-N-[(3R)-1-methylpyrrolidin-3-yl]-[2,3′-bipyridine]-6-carboxamide]
CCOc1ncccc1-c1ccc(N2CCN(C(=O)c3ccc(OC)nc3C(F)(F)F)C[C@H]2CC)c(C(=O)N[C@H]2CNC[C@H]2F)n1 [Compound 1-291, 2′-ethoxy-5-[(2R)-2-ethyl-4-[6-methoxy-2-(trifluoromethyl)pyridine-3-carbonyl]piperazin-1-yl]-N-[(3S,4R)-4-fluoropyrrolidin-3-yl]-[2,3′-bipyridine]-6-carboxamide]
CCOc1ncccc1-c1ccc(N2CCN(C(=O)c3ccc(Cl)cc3C(F)(F)F)C[C@H]2CC)c(C(=O)NCCN(C)C)n1 [Compound 1-150, 5-[(2R)-4-[4-chloro-2-(trifluoromethyl)benzoyl]-2-ethylpiperazin-1-yl]-N-[2-(dimethylamino)ethyl]-2′-ethoxy-[2,3′-bipyridine]-6-carboxamide Acetate]
CCOc1ncccc1-c1ccc(N2CCN(C(=O)c3ccc(F)cc3C(F)(F)F)C[C@H]2CC)c(C(=O)NCCN(C)C)c1F [Compound 1-174, N-[2-(dimethylamino)ethyl]-3-(2-ethoxypyridin-3-yl)-6-[(2R)-2-ethyl-4-[4-fluoro-2-(trifluoromethyl)benzoyl]piperazin-1-yl]-2-fluorobenzamide]
CCOc1ncccc1-c1ccc(N2CCN(C(=O)c3ccc(Cl)cc3C(F)(F)F)C[C@H]2CC)c(C(=O)NCCNC)c1 [Compound 1-46, 2-[(2R)-4-[4-chloro-2-(trifluoromethyl)benzoyl]-2-ethylpiperazin-1-yl]-5-(2-ethoxypyridin-3-yl)-N-[2-(methylamino)ethyl]benzamide]
CCOc1ncccc1-c1ccc(N2CCN(C(=O)c3ccc(OC)cc3C(F)(F)F)C[C@H]2CC)c(C(=O)NC2CN(C)C2)c1F [Compound 1-203, 3-(2-ethoxypyridin-3-yl)-6-[(2R)-2-ethyl-4-[4-methoxy-2-(trifluoromethyl)benzoyl]piperazin-1-yl]-2-fluoro-N-(1-methylazetidin-3-yl)benzamide]
CCOc1ncccc1-c1ccc(N2CCN(C(=O)c3ccc(OC)cc3C(F)(F)F)C[C@H]2CC)c(C(=O)NCC2=NCCN2)c1F [Compound 1-170, N-[(4,5-dihydro-1H-imidazol-2-yl)methyl]-3-(2-ethoxypyridin-3-yl)-6-[(2R)-2-ethyl-4-[4-methoxy-2-(trifluoromethyl)benzoyl]piperazin-1-yl]-2-fluorobenzamide]
CCOc1ncccc1-c1ccc(N2CCN(C(=O)c3ccc(Cl)cc3C)C[C@H]2CC)c(C(=O)NCCN)c1 [Compound 1-87, N-(2-aminoethyl)-2-[(2R)-4-(4-chloro-2-methylbenzoyl)-2-ethylpiperazin-1-yl]-5-(2-ethoxypyridin-3-yl)benzamide]
CCOc1ncccc1-c1ccc(N2CCN(C(=O)N3CCc4cccc(C#N)c43)C[C@H]2CC)c(C(=O)N[C@H]2CCN(C)C2)n1 [Compound 1-404, 5-[(2R)-4-(7-cyano-2,3-dihydro-1H-indole-1-carbonyl)-2-ethylpiperazin-1-yl]-2′-ethoxy-N-[(3S)-1-methylpyrrolidin-3-yl]-[2,3′-bipyridine]-6-carboxamide]
CCOc1ncccc1-c1ccc(N2CCN(C(=O)c3sc(Cl)cc3Cl)C[C@H]2CC)c(C(=O)N[C@@H]2CCN(C)C2)n1 [Compound 1-380, 5-[(2R)-4-(3,5-dichlorothiophene-2-carbonyl)-2-ethylpiperazin-1-yl]-2′-ethoxy-N-[(3R)-1-methylpyrrolidin-3-yl]-[2,3′-bipyridine]-6-carboxamide]
CCOc1ncccc1-c1ccc(N2CCN(C(=O)O[C@H](c3ccccc3)C(F)(F)F)C[C@H]2CC)c(C(=O)N[C@@H]2CCNC2)n1 [Compound 1-351, (1R)-2,2,2-trifluoro-1-phenylethyl (3R)-4-(2′-ethoxy-6-{[(3R)-pyrrolidin-3-yl]carbamoyl}-[2,3′-bipyridin]-5-yl)-3-ethylpiperazine-1-carboxylate]
CCOc1ncccc1-c1ccc(N2CCN(C(=O)c3ccc(F)cc3C(F)(F)F)C[C@H]2CC)c(C(=O)NCC2=NCCN2)c1F [Compound 1-182, N-[(4,5-dihydro-1H-imidazol-2-yl)methyl]-3-(2-ethoxypyridin-3-yl)-6-[(2R)-2-ethyl-4-[4-fluoro-2-(trifluoromethyl)benzoyl]piperazin-1-yl]-2-fluorobenzamide]
CCOc1ncccc1-c1ccc(N2CCN(C(=O)c3ccc(OC)cc3C(F)(F)F)C[C@H]2CC)c(C(=O)NCCN(C)C)c1F [Compound 1-168, N-[2-(dimethylamino)ethyl]-3-(2-ethoxypyridin-3-yl)-6-[(2R)-2-ethyl-4-[4-methoxy-2-(trifluoromethyl)benzoyl]piperazin-1-yl]-2-fluorobenzamide]
CCOc1ncccc1-c1ccc(N2CCN(C(=O)c3ccc(Cl)cc3C(F)(F)F)C[C@H]2CC)c(C(=O)N[C@H]2CCNC2)n1 [Compound 1-214, 5-[(2R)-4-[4-chloro-2-(trifluoromethyl)benzoyl]-2-ethylpiperazin-1-yl]-2′-ethoxy-N-[(3S)-pyrrolidin-3-yl]-[2,3′-bipyridine]-6-carboxamide]
CCOc1ccccc1-c1ccc(N2CCN(C(=O)n3ccc4cc(F)cc(Cl)c43)C[C@H]2CC)c(C(=O)N[C@@H]2CCN(C)C2)n1 [Compound 1-430, 3-[(2R)-4-(7-chloro-5-fluoro-1H-indole-1-carbonyl)-2-ethylpiperazin-1-yl]-6-(2-ethoxyphenyl)-N-[(3R)-1-methylpyrrolidin-3-yl]pyridine-2-carboxamide]
CCOc1ncccc1-c1ccc(N2CCN(C(=O)c3ccc(Cl)cc3C(F)(F)F)C[C@H]2CC)c(C(=O)NC[C@H]2CCN2C)c1 [Compound 1-228, 2-[(2R)-4-[4-chloro-2-(trifluoromethyl)benzoyl]-2-ethylpiperazin-1-yl]-5-(2-ethoxypyridin-3-yl)-N-{[(2R)-1-methylazetidin-2-yl]methyl}benzamide]
CCOc1ccccc1-c1ccc(N2CCN(C(=O)c3ccc(C(F)(F)F)cc3Cl)C[C@H]2CC)c(C(=O)NCCN)c1 [Compound 1-3, N-(2-aminoethyl)-4-[(2R)-4-[2-chloro-4-(trifluoromethyl)benzoyl]-2-ethylpiperazin-1-yl]-2′-ethoxy-[1,1′-biphenyl]-3-carboxamide]
CCOc1ncccc1-c1ccc(N2CCN(C(=O)c3ccc(F)cc3Cl)C[C@H]2CC)c(C(=O)N[C@@H]2CCNC2)c1F [Compound 1-73, 6-[(2R)-4-(2-chloro-4-fluorobenzoyl)-2-ethylpiperazin-1-yl]-3-(2-ethoxypyridin-3-yl)-2-fluoro-N-[(3R)-pyrrolidin-3-yl]benzamide]
CCOc1ncccc1-c1ccc(N2CCN(C(=O)C3(C(F)(F)F)CC4CCC3C4)C[C@H]2CC)c(C(=O)N[C@@H]2CCNC2)n1 (stereo partly drawn) [Compound 1-297, 2′-ethoxy-5-[(2R)-2-ethyl-4-[2-(trifluoromethyl)bicyclo[2.2.1]heptane-2-carbonyl]piperazin-1-yl]-N-[(3R)-pyrrolidin-3-yl]-[2,3′-bipyridine]-6-carboxamide]
CCOc1ncccc1-c1ccc(N2CCN(C(=O)C3(C(F)(F)F)CCCC3)C[C@H]2CC)c(C(=O)NC[C@@H]2CCCN2)n1 [Compound 1-325, 2′-ethoxy-5-[(2R)-2-ethyl-4-[1-(trifluoromethyl)cyclopentanecarbonyl]piperazin-1-yl]-N-{[(2S)-pyrrolidin-2-yl]methyl}-[2,3′-bipyridine]-6-carboxamide]

Source: patent publication US10981894B2, “Melanocortin subtype-2 receptor (MC2R) antagonists and uses thereof” (Crinetics Pharmaceuticals, Inc., priority 2018, dated 2021)
